In patent US5547944A, “Dermatan sulphate possessing a thrombolytic activity, and pharmaceutical forms containing it” (Opocrin S.p.A., priority 1991, dated 1996):

How the values were obtained:
[1] = tested on: thrombus formations in the occluded vena cava; test: thrombolytic activity on already formed vena cava thrombus versus urokinase; format: in vivo, rat
Description: DS administered intravenously is active at a dose of 0.1 mg/kg in inhibiting 90% of a Jugular vein thrombosis induced by Protein Complex Concentrate (PCC) in the rabbit, and in inhibiting 70% of a thrombosis induced by a PCC/RVV (Russel Viper Venom) combination; (Fareed J. et al.; Sem. Thromb. Haemost. 11, 155-157 (1985)).
With dermatan sulphate fractions similar to the one coded 1.25M as obtained in Example 1b) comparative studies were made on thrombolytic activity versus urokinase. Four groups of 10 rats each were anaesthetised with 1 g/kg of urethane administered in endoperitoneal physiological solution by endoperitoneal route. The vena cava of the rats was subjected to ligature in line with the Reyers test (Thromb. Res. 18, 699, 1980), and two hours after the ligature 5 mg/kg/i.v. of DS and 5000 U/kg of Ukidan (Urokinase-Serono) were administered. After eight hours the thrombus formations in the occluded vein were removed.

[2] = tested on: bleeding time; details: in vivo

Substance: Urokinase
- reduction in thrombus weight ([1]; bolus then 6 hours infusion: DS 2.5 mg/kg + 1.25 mg/kg/hour, urokinase 2500 U/kg + 1250 U/kg/hour, relative to untreated controls): 70.2%
- mean thrombus weight ([1]; treated two hours after ligature, 5 mg/kg i.v. DS or 5000 U/kg Ukidan, thrombus removed eight hours after ligature): 2.2 mg

Substance: dermatan sulphate [DS]
- effect on bleeding time [2]: very little effect
